Experimental data reported in patent EP0175291B1, “Novel alpha-D-mannosidase inhibitor” (MICROBIAL CHEMISTRY RESEARCH FOUNDATION, priority 1984, dated 1986).
Entries after “also recorded” stand apart in the source; their conditions may differ.

Tests used:
[1] = test system: α-D-mannosidase of the leguminous plant origin; details: qualitative, prior art; cited from earlier work
[2] = target: T1, α-D-mannosidase of the rat epididymis origin (Rattus norvegicus, UniProt Q6P762); test: α-D-mannosidase inhibitory activity, colorimetric, p-nitrophenyl-α-D-mannopyranoside substrate; assay type: biochemical; details: qualitative statement
T1 sequence (Q6P762 50-1009): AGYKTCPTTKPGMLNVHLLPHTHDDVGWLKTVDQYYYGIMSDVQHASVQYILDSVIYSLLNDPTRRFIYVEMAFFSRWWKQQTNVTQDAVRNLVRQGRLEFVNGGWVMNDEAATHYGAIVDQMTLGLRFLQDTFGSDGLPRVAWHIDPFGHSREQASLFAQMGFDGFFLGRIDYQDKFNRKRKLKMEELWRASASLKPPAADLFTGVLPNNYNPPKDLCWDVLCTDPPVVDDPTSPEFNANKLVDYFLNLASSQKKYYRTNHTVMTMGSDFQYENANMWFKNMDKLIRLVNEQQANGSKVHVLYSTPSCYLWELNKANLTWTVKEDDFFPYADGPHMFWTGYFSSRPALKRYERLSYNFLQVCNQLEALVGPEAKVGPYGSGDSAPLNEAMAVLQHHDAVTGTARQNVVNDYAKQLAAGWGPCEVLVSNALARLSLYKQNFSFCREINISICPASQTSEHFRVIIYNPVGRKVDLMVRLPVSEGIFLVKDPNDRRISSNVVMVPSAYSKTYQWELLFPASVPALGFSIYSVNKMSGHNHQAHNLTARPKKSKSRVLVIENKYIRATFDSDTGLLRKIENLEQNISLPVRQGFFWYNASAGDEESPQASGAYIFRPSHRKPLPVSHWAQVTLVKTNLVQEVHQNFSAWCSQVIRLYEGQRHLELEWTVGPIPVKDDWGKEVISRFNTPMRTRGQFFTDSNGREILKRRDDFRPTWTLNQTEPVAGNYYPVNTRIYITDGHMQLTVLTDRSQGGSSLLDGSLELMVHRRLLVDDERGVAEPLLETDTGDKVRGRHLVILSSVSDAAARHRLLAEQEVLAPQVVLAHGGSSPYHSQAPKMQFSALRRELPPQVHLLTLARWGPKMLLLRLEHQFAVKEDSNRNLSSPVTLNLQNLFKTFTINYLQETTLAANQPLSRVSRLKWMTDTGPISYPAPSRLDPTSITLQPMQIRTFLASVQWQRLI
Experimental: Assay of the compounds according to this invention is performed by measuring their α-D-mannosidase inhibitory activity. The activity of α-D-mannosidase is determined by colorimetrically measuring the amount of p-nitrophenol that has been liberated when p-nitrophenyl-α-D-mannopyranoside (Koch-Light Laboratories, England) as a substrate is hydrolyzed with α-D-mannosidase of the rat epididymis origin (a fraction obtained by precipitation with 20 - 80% ammonium sulfate at the Institute of Microbial Chemistry). Details of said procedure are as follows: p-Nitro-phenyl-α-D-mannopyranoside is dissolved in 50% methanol to make a 0.04M solution. To 0.05 ml of the 0.04M substrate solution are added 0.25 ml of a 0.1M acetate buffer (pH 4.5) and 0.15 ml of water or an aqueous solution containing the test compound. The mixture is heated at 37°C for 3 minutes, and 0.05 ml of -D-mannosidase is added. […] The reaction mixture is measured for the absorbance (A) at 400 nm. Separately, the control mixture comprising only water and being free from the aforesaid test compound solution is measured for the absorbance termed (b). The α-D-mannosidase inhibition rate (%) is calculated from the equation (b - a)/b x 100. […]

O[C@H]1[C@H]2[C@H](O)CCCN2C[C@H]1O [Swainsonine]
inhibition of α-D-mannosidase of the leguminous plant origin, in words [1]: inhibits

CSC1C(N)C(O)C(O)C1O (stereo not drawn) [mannostatin]
inhibition of α-D-mannosidase of the animal origin (rat epididymides), in words [2]: stronghly inhibit; also recorded: strongly inhibit

C[S+]([O-])C1C(N)C(O)C(O)C1O (stereo not drawn) [mannostatin S-oxide]
inhibition of α-D-mannosidase of the animal origin (rat epididymides), in words [2]: stronghly inhibit; also recorded: strongly inhibit
